Experimental data reported in patent US10052297B2, “L-serine to be used as a drug for preventing and/or treating an inflammatory response of the skin” (PIERRE FABRE DERMO-COSMETIQUE, priority 2009, dated 2018).
Marks after values point to notes of the source that are not given here.

How the values were obtained:
PAR2 = target: T1, PAR2 (Homo sapiens, UniProt P55085); test: Inhibition of trypsin-induced calcium flow (PAR2 activation) in HaCaT keratinocytes, Fluo-4/AM fluorescence; assay type: cell-based; conditions: HaCaT cells, 10 nM trypsin stimulation; for inhibition at 3 µM / inhibition at 10 µM / inhibition at 30 µM / inhibition at 100 µM: 30 min incubation, read-out: Anti-PAR2 activity (percentage of inhibition); for Inhibition of PAR2 activation (result in words): 3-100 μM
T1 construct: HaCaT cell line keratinocyte models were used; endogenous in cells; host or cells: HaCaT keratinocytes
T1 sequence (P55085 26-397): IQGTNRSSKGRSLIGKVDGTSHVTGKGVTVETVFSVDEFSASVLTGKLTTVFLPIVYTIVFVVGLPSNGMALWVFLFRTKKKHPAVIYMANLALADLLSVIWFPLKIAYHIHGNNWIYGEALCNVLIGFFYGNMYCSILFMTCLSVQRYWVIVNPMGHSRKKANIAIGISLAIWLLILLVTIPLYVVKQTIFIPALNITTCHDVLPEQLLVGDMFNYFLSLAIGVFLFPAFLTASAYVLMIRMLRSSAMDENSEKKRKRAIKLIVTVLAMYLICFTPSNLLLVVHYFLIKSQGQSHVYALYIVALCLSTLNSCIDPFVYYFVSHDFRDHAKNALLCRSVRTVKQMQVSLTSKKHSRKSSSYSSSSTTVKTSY
Procedure: HaCaT cell line keratinocyte models were used. L-serine and L-asparagine were purchased from EVONIK, L-arginine was purchased from AMINO and L-valine was purchased from AJINOMOTO.
A fluorescent probe (Fluo-4/AM at a concentration of 2 μM) is incorporated for 30 minutes in cells inoculated in 96-well plates and the active agent to be tested is incubated for 30 minutes. Only the deesterified form of the probe bound to calcium ions is excitable under 485 nm fluorescence and emits at 535 nm. The incubation buffer used is HBSS buffer supplemented with HEPES (20 mM) and with water-soluble probenecid (2.5 mM).
The cells were stimulated with 10 nM trypsin.
The reference molecule used is a STI molecule (soybean trypsin inhibitor) at a concentration of 1 μM.
L-serine and L-asparagine, solubilized at 50 mg/ml in distilled water (475.8 mM for L-serine and 378.4 mM for L-asparagine) were evaluated at concentrations of 3 μM, 10 μM, 30 μM and 100 μM.
L-arginine was solubilized at 100 mM in distilled water.
L-valine was solubilized at 200 mM in distilled water.
Calcium flow, which represents PAR2 activation, is measured by fluorescence, well by well in real time according to kinetics before and after the injection of trypsin. The percentage of inhibition of PAR2 activation corresponds to the percentage of inhibition of calcium flow.

IL-8 secretion = test: Inhibition of IL-8 secretion stimulated by trypsin in HaCaT keratinocytes (sandwich ELISA); assay type: cell-based; conditions: Homo sapiens, 10 nM trypsin 24 h, n=2 experiments
Procedure: The test performed permitted to evaluate the anti-inflammatory activity of L-serine in terms of IL-8 secretion, stimulated by trypsin, on human keratinocytes from a cell line (HaCaT). Principle of the IL-8 Assay: Sandwich ELISA for Quantification of IL-8 Secreted in Culture Supernatants. IL-8 is captured by a monoclonal antibody bound to microplate wells. A second anti-IL-8 antibody is added. This antibody is biotinylated, which enabled the binding of streptavidin coupled with peroxidase activity. Adding the peroxidase substrate makes it possible to quantify the IL-8 concentration in each well by measuring absorbance at 450 nm. The HaCaT human keratinocyte cell line was used. A 96-well microplate for cell culture and a plate reader with injectors, Mithras LB940TM (Berthold Technologies®), were used. 10 nM trypsin was used as stimulation agent. Reagents from the Human CXCL8/IL8 DuoSet R&D System kit (ref. DY208(E)) were used. L-serine, solubilized at 475.8 mM in distilled water, was evaluated at concentrations of 3 μM, 10 μM, 30 μM, 100 μM, 300 μM and 1 mM. L-serine is incubated for 1 hour at 37° C. (HBSS buffer). The stimulation agent (trypsin […]) is then added and incubated for 24 hours at 37° C. The culture supernatants are recovered, centrifuged at +4° C. and then stored at -20° C. The IL-8 concentrations of the samples are calculated from a standard curve of the following equation: OD=(Bmax*[IL-8])/(Kd+[IL-8]) Next, the percentages of inhibition of IL-8 secretion are calculated according to the following formula: […]

Question: For `N=C(N)NCCC[C@H](N)C(=O)O` [L-arginine, reference compound], which inhibition at 3 µM (PAR2) is on record?
Answer: -17%

Question: What about the inhibition at 10 µM (PAR2) of the same molecule?
Answer: 12%

Question: And the inhibition at 30 µM (PAR2)?
Answer: -11%

Question: And the inhibition at 100 µM (PAR2)?
Answer: 1%

Question: And the “Inhibition of PAR2 activation (result in words)” value (shortened to “Inhibition of PAR2 activation”) (PAR2)?
Answer: does not significantly inhibit PAR2 activation

Question: Which results are given for `NC(=O)CC(N)C(=O)O` [L-asparagine, asparagine-amino-succinic acid]?
Answer: inhibition at 3 µM (PAR2): 23%; inhibition at 10 µM (PAR2): 23%; inhibition at 30 µM (PAR2): 22%; inhibition at 100 µM (PAR2): 31%; Inhibition of PAR2 activation (result in words) (PAR2): inhibit PAR2 activation, but not in a dose-dependent manner

Question: With `NC(CO)C(=O)O` [L-serine, 2-amino-3-hydroxypropanoic acid] as the molecule, how does the inhibition at 10 µM (IL-8 secretion; 10 μM) read?
Answer: 47%

Question: What about the inhibition at 30 µM (IL-8 secretion; 30 μM) of the same molecule?
Answer: 50%

Question: And the inhibition at 100 µM (IL-8 secretion; 100 μM)?
Answer: 66%

Question: What about the inhibition at 1000 µM (IL-8 secretion; 1 mM) of the same molecule?
Answer: 74%

Question: And the inhibition at 3 µM (PAR2)?
Answer: 3%

Question: And the inhibition at 10 µM (PAR2)?
Answer: 13%

Question: And the inhibition at 30 µM (PAR2)?
Answer: 20%

Question: And the inhibition at 100 µM (PAR2)?
Answer: 33%

Question: What about the “Inhibition of PAR2 activation” value (PAR2) of the same molecule?
Answer: inhibit PAR2 activation in a dose-dependent manner

Question: With `CC(C)[C@H](N)C(=O)O` [L-valine] as the molecule, how does the inhibition at 3 µM (PAR2) read?
Answer: 6%

Question: And the inhibition at 10 µM (PAR2)?
Answer: 26%

Question: And the inhibition at 30 µM (PAR2)?
Answer: 20%

Question: What about the inhibition at 100 µM (PAR2) of the same molecule?
Answer: 34%

Question: And the “Inhibition of PAR2 activation” value (PAR2)?
Answer: inhibit PAR2 activation

B1: STI: reference molecule, STI molecule (soybean trypsin inhibitor) at a concentration of 1 μM (protein, UniProt P01070 25-205, looked up)
Trypsin inhibitor A: DFVLDNEGNPLENGGTYYILSDITAFGGIRAAPTGNERCPLTVVQSRNELDKGIGTIISSPYRIRFIAEGHPLSLKFDSFAVIMLCVGIPTEWSVVEDLPEGPAVKIGENKDAMDGWFRLERVSDDEFNNYKLVFCPQQAEDDKCGDIGISIDHDDGTRRLVVSKNKPLVVQFQKLDKESL
Question: B1 was tested. Which “Anti-PAR2 activity (percentage of inhibition)” value (PAR2; reference at 1 μM) did it give?
Answer: 106-109%***
